According to paper PMC5107956 (2016):

Experiments:
Experiment in all cases: fluorescent intercalator displacement (thiazole orange)
Settings in all cases: 50 mM KCl, 10 mM potassium cacodylate (60 mM K+); pH 7.4, room temperature; thiazole orange 0.625 μM displaced; DNA 0.25 μM; DMSO stocks
[1] = test system: HTelo (DNA, G4) AGGGTTAGGGTTAGGGTTAGGG
[2] = test system: KRAS m(1:5:1) (DNA, G4) GGGAGGGAAGGAGGGAGGG
[3] = test system: KRAS m(1:9:1) (DNA, G4) GGGAGGGAAGGAGGGAGGGAGGG
[4] = test system: c-Kit (c-Kit21) (DNA, G4) CGGGCGGGCGCGAGGGAGGGG
[5] = test system: c-Myc (DNA, G4) GGGAGGGTGGGGAGGGTGGG
[6] = test system: ds26 (DNA, duplex) CAATCGGATCGAATTCGATCCGATTG
[7] = test system: HIF1α (HIF1) (DNA, G4) CGGGGAGGGGAGAGGGGGCGGGA
[8] = test system: hTERT (DNA, G4) GGGGAGGGGCTGGGAGGGCCC
[9] = test system: VEGF (VEGF22) (DNA, G4) CGGGGCGGGCCGGGGGCGGGGT

- DC50 [1]: 1.01 (0.03) μM
- DC50 [2]: 2.28 (0.10) μM
- DC50 [3]: 2.35 (0.09) μM
- DC50 [4]: 3.58 (0.28) μM
- DC50 [5]: 7.15 (0.17) μM
- DC50 [6]: 9.91 (0.55) μM
- DC50 [7]: 10.20 (0.54) μM
- DC50 [8]: 10.51 (0.61) μM
- DC50 [9]: 11.58 (0.41) μM
SMILES: O=C(N/N=C/c1ccc(O)cc1[O-])N(Cc1ccccc1)Cc1ccccc1.[Cu+2].c1ccncc1
